In patent US12371421B2, “Solid forms of a PARP7 inhibitor” (Ribon Therapeutics, Inc., priority 2019, dated 2025):

What was measured:
[1] = test system: CT26 colon cancer syngeneic model; test: Tumor growth in murine CT26 colon cancer syngeneic model; assay type: in vivo, BALB/c mice; settings: BID 125-500 mg/kg or QD 500 mg/kg for 21 days; P<0.0001 vs vehicle (Day 16)
Method: For the CT26 study, BALB/c mice were inoculated subcutaneously in the right flank with CT26 cells for tumor development. After 5 days of cell inoculation, mice with 36-79 mm^3 tumors were randomized into treatment groups with mean tumor volumes of 54 mm^3. […] Tumor volumes were determined by manual calipers every 2-3 days. Mean tumor volume and SEM are plotted. BID: twice a day; PO: per oral administration; QD: once a day; SC: per subcutaneous administration. […] Statistical analysis for tumor growth inhibition (TGI) was performed when at least 8 of the 10 mice were remaining in the vehicle group (Day 16). Statistical significance is calculated using two-way ANOVA followed by Bonferroni post-tests in which the treatment groups were compared to vehicle control (**** P<0.0001).

SK-MES-1 = test: Cancer cell growth inhibition (CellTiter-Glo); assay type: cell-based; settings: Homo sapiens; SK-MES-1, squamous cell lung carcinoma; 144 hours
Method: (§1) Cells were plated into 384-well plates at a pre-specified density in fetal bovine serum-containing media. Cells were treated with compound or vehicle (DMSO) 24 hrs later, and a day zero plate was collected for analysis. Test compound plates were incubated continuously for 144 hours before cells and cell growth was assessed using a luminescent cell viability assay (CellTiter-Glo, Promega). The GI50 was determined by correcting for the cell count at time zero (time of treatment) and plotting data as percent growth relative to vehicle-treated cells.

NCI-H1373 = test: Cancer cell growth inhibition (CellTiter-Glo); assay type: cell-based; settings: Homo sapiens; NCI-H1373, lung adenocarcinoma; 144 hours
Method: as §1

SW900 = test: Cancer cell growth inhibition (CellTiter-Glo); assay type: cell-based; settings: Homo sapiens; SW900, squamous cell lung carcinoma; 144 hours
Method: as §1

NCI-H1930 = test: Cancer cell growth inhibition (CellTiter-Glo); assay type: cell-based; settings: Homo sapiens; NCI-H1930, small cell lung carcinoma; 144 hours
Method: as §1

SK-MEL-2 = test: Cancer cell growth inhibition (CellTiter-Glo); assay type: cell-based; settings: Homo sapiens; SK-MEL-2, malignant melanoma; 144 hours
Method: as §1

HT-1080 = test: Cancer cell growth inhibition (CellTiter-Glo); assay type: cell-based; settings: Homo sapiens; HT-1080, fibrosarcoma; 144 hours
Method: as §1

KALS-1 = test: Cancer cell growth inhibition (CellTiter-Glo); assay type: cell-based; settings: Homo sapiens; KALS-1, glioblastoma; 144 hours
Method: as §1

EBC-1 = test: Cancer cell growth inhibition (CellTiter-Glo); assay type: cell-based; settings: Homo sapiens; EBC-1, squamous cell lung carcinoma; 144 hours
Method: as §1

ACC-MESO-1 = test: Cancer cell growth inhibition (CellTiter-Glo); assay type: cell-based; settings: ACC-MESO-1, mesothelioma; 144 hours
Method: as §1

NCI-H441 = test: Cancer cell growth inhibition (CellTiter-Glo); assay type: cell-based; settings: Homo sapiens; NCI-H441, papillary adenocarcinoma of the lung; 144 hours
Method: as §1

CFPAC-1 = test: Cancer cell growth inhibition (CellTiter-Glo); assay type: cell-based; settings: Homo sapiens; CFPAC-1, pancreatic ductal adenocarcinoma; 144 hours
Method: as §1

YD-10B = test: Cancer cell growth inhibition (CellTiter-Glo); assay type: cell-based; settings: tongue squamous cell carcinoma, 144 hours
Method: as §1

T84 = test: Cancer cell growth inhibition (CellTiter-Glo); assay type: cell-based; settings: Homo sapiens; T84, colon adenocarcinoma; 144 hours
Method: as §1

MDA-MB-468 = test: Cancer cell growth inhibition (CellTiter-Glo); assay type: cell-based; settings: Homo sapiens; MDA-MB-468, breast adenocarcinoma; 144 hours
Method: as §1

KMBC-2 = test: Cancer cell growth inhibition (CellTiter-Glo); assay type: cell-based; settings: KMBC-2, bladder carcinoma; 144 hours
Method: as §1

CAL-27 = test: Cancer cell growth inhibition (CellTiter-Glo); assay type: cell-based; settings: Homo sapiens; CAL-27, tongue squamous cell carcinoma; 144 hours
Method: as §1

HCC827 = test: Cancer cell growth inhibition (CellTiter-Glo); assay type: cell-based; settings: Homo sapiens; HCC827, lung adenocarcinoma; 144 hours
Method: as §1

SCC-25 = test: Cancer cell growth inhibition (CellTiter-Glo); assay type: cell-based; settings: Homo sapiens; SCC-25, tongue squamous cell carcinoma; 144 hours
Method: as §1

MCAS = test: Cancer cell growth inhibition (CellTiter-Glo); assay type: cell-based; settings: ovarian mucinous cystadenocarcinoma, 144 hours
Method: as §1

MSTO-211H = test: Cancer cell growth inhibition (CellTiter-Glo); assay type: cell-based; settings: Homo sapiens, biphasic mesothelioma, 144 hours
Method: as §1

TUHR10TKB = test: Cancer cell growth inhibition (CellTiter-Glo); assay type: cell-based; settings: renal cell carcinoma, 144 hours
Method: as §1

KMRC-3 = test: Cancer cell growth inhibition (CellTiter-Glo); assay type: cell-based; settings: KMRC-3, clear cell renal carcinoma; 144 hours
Method: as §1

HPAF-II = test: Cancer cell growth inhibition (CellTiter-Glo); assay type: cell-based; settings: Homo sapiens, pancreatic adenocarcinoma, 144 hours
Method: as §1

COLO 680N = test: Cancer cell growth inhibition (CellTiter-Glo); assay type: cell-based; settings: Homo sapiens, esophageal squamous cell carcinoma, 144 hours
Method: as §1

NCI-H1963 = test: Cancer cell growth inhibition (CellTiter-Glo); assay type: cell-based; settings: Homo sapiens; NCI-H1963, small cell lung carcinoma; 144 hours
Method: as §1

H4 = test: Cancer cell growth inhibition (CellTiter-Glo); assay type: cell-based; settings: H4, neuroglioma; 144 hours
Method: as §1

Panc 03.27 = test: Cancer cell growth inhibition (CellTiter-Glo); assay type: cell-based; settings: Homo sapiens, PANC-03-27; Panc 03.27, pancreatic adenocarcinoma; 144 hours
Method: as §1

[2] = test system: NCI-H1373 lung cancer xenograft; test: Tumor growth in human NCI-H1373 lung cancer xenograft; assay type: in vivo, SCID mice
Method: For the NCI-H1373 study, SCID mice were inoculated subcutaneously in the right flank with NCI-H1373 cells for tumor development. After 5 days of tumor growth, mice with 89-148 mm^3 tumors were randomized into treatment groups with mean tumor volumes of 121 mm^3. […] Tumor volumes were determined by manual calipers every 2-3 days. Mean tumor volume and SEM are plotted. QD: once a day; PO: per oral administration. Statistical significance is calculated using two-way ANOVA followed by Bonferroni post-tests in which the treatment groups were compared to vehicle control (****P<0.0001).

C[C@@H](COCCC(=O)N1CCN(c2ncc(C(F)(F)F)cn2)CC1)Nc1cn[nH]c(=O)c1C(F)(F)F [Compound 1, 5-[[(2S)-1-(3-oxo-3-[4-[5-(trifluoromethyl)pyrimidin-2-yl]piperazin-1-yl]propoxy)propan-2-yl]amino]-4-(trifluoromethyl)-2,3-dihydropyridazin-3-one]
Tumor growth (tumor volume) vs vehicle [1]: significantly reduces tumor growth | GI50 (SK-MES-1): ≥ 1000 nM | GI50 (NCI-H1373): < 100 nM | GI50 (SW900): 100 to 1000 nM | GI50 (NCI-H1930): ≥ 1000 nM | GI50 (SK-MEL-2): ≥ 1000 nM | GI50 (HT-1080): ≥ 1000 nM | GI50 (KALS-1): ≥ 1000 nM | GI50 (EBC-1): < 100 nM | GI50 (ACC-MESO-1): ≥ 1000 nM | GI50 (NCI-H441): ≥ 1000 nM | GI50 (CFPAC-1): 100 to 1000 nM | GI50 (YD-10B): ≥ 1000 nM | GI50 (T84): ≥ 1000 nM | GI50 (MDA-MB-468): ≥ 1000 nM | GI50 (KMBC-2): ≥ 1000 nM | GI50 (CAL-27): ≥ 1000 nM | GI50 (HCC827): < 100 nM | GI50 (SCC-25): < 100 nM | GI50 (MCAS): ≥ 1000 nM | GI50 (MSTO-211H): ≥ 1000 nM | GI50 (TUHR10TKB): < 100 nM | GI50 (KMRC-3): ≥ 1000 nM | GI50 (HPAF-II): ≥ 1000 nM | GI50 (COLO 680N): ≥ 1000 nM | GI50 (NCI-H1963): ≥ 1000 nM | GI50 (H4): ≥ 1000 nM | GI50 (Panc 03.27): < 100 nM | Tumor growth (tumor volume) vs vehicle ([2]; 62.5, 125, 250, 500 mg/kg QD PO for 28 days, P<0.0001 vs vehicle): significantly reduces tumor growth | Tumor regression ([2]; 62.5 to 500 mg/kg once a day for 28 days, oral gavage, all dose levels): complete tumor regression
